Laboratory results reported in paper PMC11971462, “Generation and validation of a novel multitarget small molecule in glioblastoma” (Cell Death & Disease, 2025).

Tested on: GNS166 cells

C#CCN(Cc1cc2cc(OCCCN3CCCCC3)ccc2n1S(=O)(=O)c1ccccc1)C(=O)CCCCCCC(=O)NO [DDI]
A2M log2FoldChange: 2.665 | ABCD2 log2FoldChange: 5.236 | ABCG1 log2FoldChange: 3.412 | ABLIM2 log2FoldChange: 4.711 | ABLIM3 log2FoldChange: 3.639 | ACSL6 log2FoldChange: 2.978 | ACSM3 log2FoldChange: 2.457 | ACTBL2 log2FoldChange: 4.551 | ADAMTS2 log2FoldChange: 6.235 | ADAMTS7 log2FoldChange: 2.1929 | ADAMTS8 log2FoldChange: 3.596 | ADCYAP1R1 log2FoldChange: 3.806 | ADGRG4 log2FoldChange: 6.334 | ADRB1 log2FoldChange: 2.369 | AKR1C3 log2FoldChange: 4.683 | ALDH1A1 log2FoldChange: 3.2419 | ALPL log2FoldChange: 3.15 | AMER2 log2FoldChange: 3.985 | ANGPTL4 log2FoldChange: 2.513 | ANGPTL6 log2FoldChange: 3.595 | ANKRD1 log2FoldChange: 3.607 | ANKRD24 log2FoldChange: 3.419 | ANO5 log2FoldChange: 4.46 | ANOS1 log2FoldChange: 4.667 | APC2 log2FoldChange: 2.08 | ARHGAP4 log2FoldChange: 2.074 | ARMH1 log2FoldChange: 2.688 | ARPP21 log2FoldChange: 2.016 | ASPHD1 log2FoldChange: 2.1055 | ASXL3 log2FoldChange: 3.768 | ATCAY log2FoldChange: 4.501 | ATP6V1C2 log2FoldChange: 2.012 | AZIN2 log2FoldChange: 3.645 | B3GALT1 log2FoldChange: 2.502 | BAIAP3 log2FoldChange: 2.116 | BEST1 log2FoldChange: 2.175 | BMF log2FoldChange: 2.488 | BMP7 log2FoldChange: 2.795 | BRINP1 log2FoldChange: 6.679 | C2orf81 log2FoldChange: 2.053 | C5AR1 log2FoldChange: 2.131 | C14orf132 log2FoldChange: 5.7 | CACNA1H log2FoldChange: 4.953 | CACNA2D2 log2FoldChange: 5.172 | CADM3 log2FoldChange: 6.675 | CALHM5 log2FoldChange: 2.928 | CALY log2FoldChange: 5.625 | CAMK2N2 log2FoldChange: 2.028 | CARMIL2 log2FoldChange: 3.403 | CARMIL3 log2FoldChange: 3.869 | CCDC39 log2FoldChange: 4.487 | CCDC92B log2FoldChange: 5.8 | CCDC110 log2FoldChange: 2.494 | CCDC148 log2FoldChange: 2.41 | CCDC160 log2FoldChange: 2.467 | CCDC181 log2FoldChange: 2.436 | CCDC183 log2FoldChange: 2.45 | CCM2L log2FoldChange: 4.732 | CD22 log2FoldChange: 2.4858 | CDYL2 log2FoldChange: 2.827 | CECR2 log2FoldChange: 4.106 | CELF5 log2FoldChange: 4.62 | CFAP43 log2FoldChange: 2.577 | CFAP54 log2FoldChange: 2.381 | CFAP57 log2FoldChange: 3.908 | CFAP298-TCP10L log2FoldChange: 2.613 | CHGB log2FoldChange: 2.484 | CHRD log2FoldChange: 2.364 | CHST9 log2FoldChange: 3.903 | CKMT1A log2FoldChange: 5.211 | CLEC19A log2FoldChange: 2.635 | CLIC5 log2FoldChange: 2.4345 | COL2A1 log2FoldChange: 3.044 | COL6A3 log2FoldChange: 4.472 | CPED1 log2FoldChange: 2.118 | CPLX1 log2FoldChange: 3.672 | CPM log2FoldChange: 2.471 | CRABP1 log2FoldChange: 4.4 | CRTAC1 log2FoldChange: 4.102 | CRYAB log2FoldChange: 3.702 | CSMD2 log2FoldChange: 3.997 | CSRNP3 log2FoldChange: 2.27 | CTSH log2FoldChange: 2.081 | CYP1A1 log2FoldChange: 3.053 | CYP2S1 log2FoldChange: 2.662 | CYP4F22 log2FoldChange: 6.411 | DAPL1 log2FoldChange: 2.233 | DCAF8L1 log2FoldChange: 5.4838 | DDIT4L log2FoldChange: 2.364 | DENND6B log2FoldChange: 2.257 | DGKI log2FoldChange: 3.175 | DHH log2FoldChange: 3.784 | DLL3 log2FoldChange: 3.7947 | DLX3 log2FoldChange: 2.236 | DMBX1 log2FoldChange: 2.746 | DNAAF1 log2FoldChange: 4.023 | DNAH7 log2FoldChange: 3.23 | DNAI1 log2FoldChange: 4.453 | DNAI3 log2FoldChange: 2.636 | DNAI7 log2FoldChange: 4.138 | DOCK5 log2FoldChange: 2.9913 | DTX1 log2FoldChange: 4.306 | DUSP9 log2FoldChange: 2.25 | EAF2 log2FoldChange: 2.082 | EDA log2FoldChange: 4.8176 | EFCAB12 log2FoldChange: 2.979 | EGFL7 log2FoldChange: 2.196 | EGLN3 log2FoldChange: 2.576 | EID3 log2FoldChange: 2.42 | ELAPOR2 log2FoldChange: 4.1571 | ELOVL3 log2FoldChange: 3.984 | EPHB6 log2FoldChange: 4.725 | ERBB3 log2FoldChange: 2.384 | ERVV-1 log2FoldChange: 6.315 | FAIM2 log2FoldChange: 2.169 | FAM43B log2FoldChange: 2.485 | FAM71F1 log2FoldChange: 2.207 | FAM78A log2FoldChange: 2.232 | FAM107A log2FoldChange: 2.013 | FAM131C log2FoldChange: 2.228 | FANK1 log2FoldChange: 2.642 | FAT2 log2FoldChange: 2.483 | FBLN2 log2FoldChange: 5.485 | FBLN5 log2FoldChange: 4.419
